Results from PubChem BioAssay (NCI).
“And” between values parts separate entries of the source, which are not always exact repeats. Equal values may be shown once.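 Where inhibition never reached the appropriate level, the endpoint shown equals the highest concentration tested. Otherwise, values were interpolated linearly from a five-concentration, 48-hour dose response in 96-well plates. Abbreviation: GI50, concentration required for 50% inhibition of growth. TGI denotes the concentration required for complete inhibition of growth.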

What was measured:
Assay in all cases: DTP human tumour cell line panel, 48 h
MDA-MB-435 = system: MDA-MB-435
T-47D breast = system: T-47D breast
MOLT-4 leukemia = system: MOLT-4 leukemia
HCC-2998 colon = system: HCC-2998 colon
NCI-H460 lung = system: NCI-H460 lung
NCI/ADR-RES ovarian = system: NCI/ADR-RES ovarian
HCT-116 colon = system: HCT-116 colon
UO-31 renal = system: UO-31 renal
CAKI-1 renal = system: CAKI-1 renal
CCRF-CEM leukemia = system: CCRF-CEM leukemia

| SMILES | GI50 (MDA-MB-435) | TGI (MDA-MB-435) | GI50 (T-47D breast) | TGI (T-47D breast) | GI50 (MOLT-4 leukemia) | TGI (MOLT-4 leukemia) | GI50 (HCC-2998 colon) | TGI (HCC-2998 colon) | GI50 (NCI-H460 lung) | TGI (NCI-H460 lung) | GI50 (NCI/ADR-RES ovarian) | TGI (NCI/ADR-RES ovarian) | GI50 (HCT-116 colon) | TGI (HCT-116 colon) | GI50 (UO-31 renal) | TGI (UO-31 renal) | GI50 (CAKI-1 renal) | TGI (CAKI-1 renal) | GI50 (CCRF-CEM leukemia) | TGI (CCRF-CEM leukemia) |
| --- | --- | --- | --- | --- | --- | --- | --- | --- | --- | --- | --- | --- | --- | --- | --- | --- | --- | --- | --- | --- |
| COc1ccc(CN(C)c2ccc(CO)c(Cl)c2)cc1 | 24.2 µM | 95.4 µM | 0.513 µM | 3.82 µM | 25.8 µM | > 86.7 µM | 13.7 µM | 71.2 µM | 1.04 µM | 15 µM | 15.9 µM | 55.3 µM | 0.368 µM | 14.2 µM | 9.38 µM | 92.2 µM | 3 µM | > 64.1 µM | 32.9 µM | > 100 µM |
| O=C1c2ccccc2-c2c1c1ccccc1c(=O)n2CCCNCCCn1ccnc1 | 1.72 µM | 5.51 µM | 5.78 µM | 21.1 µM | 0.0267 µM | 0.358 µM | 0.894 µM | 2.38 µM | 1.27 µM | 43.1 µM | 1.66 µM | 4.45 µM | 0.598 µM | 2.01 µM | 1.23 µM | > 100 µM | 0.446 µM | 2.95 µM | 0.246 µM | 1.71 µM |
| CC(C)c1ccc(C(=O)Nc2nc3ccc(O)cc3s2)cc1 | 0.443 µM | > 100 µM | 0.715 µM | > 100 µM | 0.246 µM | > 100 µM | 0.371 µM | 1.81 µM | 0.47 µM | 10.9 µM | 0.948 µM | > 100 µM | 0.468 µM | > 100 µM | 0.35 µM | > 100 µM | 0.845 µM | > 100 µM | 0.318 µM | > 100 µM |
| O=c1ccn(C2OC(CO)C(O)C2F)c(=O)[nH]1 (configuration not stated) | > 1000 µM | > 1000 µM | > 1000 µM | > 1000 µM | > 1000 µM | > 1000 µM | – | > 100 µM | > 1000 µM | > 1000 µM | > 1000 µM | > 1000 µM | > 1000 µM | > 1000 µM | > 1000 µM | > 1000 µM | > 88.9 µM | > 100 µM | – | > 1000 µM |
| CC12OC(c3ccccc3)=CC(c3ccc(Cl)cc3)=C1C(c1ccccc1)=CC2=O (configuration not stated) | 81.3 µM | > 100 µM | 35.8 µM | > 100 µM | 20.6 µM | 75.6 µM | 75.2 µM | > 100 µM | 34.8 µM | > 100 µM | 55.9 µM | > 100 µM | 46.1 µM | > 100 µM | > 100 µM | > 100 µM | > 100 µM | > 100 µM | 56.2 µM | > 100 µM |
| Cc1ccccc1NC(=O)N/C(N)=N/c1nc(-c2cccc([N+](=O)[O-])c2)cs1 | 0.505 µM | 4.51 µM | 3.2 µM | > 100 µM | 3.39 µM | > 100 µM | 3.16 µM | > 100 µM | 3.18 µM | 23.1 µM | 1.82 µM | 7.22 µM | 1.58 µM | 3.18 µM | 1.29 µM | 3.83 µM | 1.16 µM | 3.16 µM | 3 µM | > 100 µM |
| COc1cc(C(=O)/C(C)=C/c2c[nH]c3ccccc23)cc(OC)c1OC | 0.00232 µM | 0.00633 µM | 2.46 µM | > 100 µM | 0.00546 µM | 37 µM | 0.0043 µM | > 100 µM | 0.00369 µM | > 100 µM | 0.00322 µM | > 100 µM | 0.00359 µM | > 100 µM | 0.00796 µM | > 100 µM | 0.00421 µM | > 100 µM | 0.00511 µM | > 100 µM |
| CC[C@H](NC(=O)[C@H](C)NC)C(=O)N1C[C@@H](O)C[C@H]1Cc1c(-c2[nH]c3cc(F)ccc3c2C[C@@H]2C[C@H](O)CN2C(=O)[C@H](CC)NC(=O)[C@H](C)NC)[nH]c2cc(F)ccc12 | – | > 100 µM | > 100 µM | > 100 µM | 74.4 µM | > 100 µM | 96.9 µM | > 100 µM | > 100 µM | > 100 µM | > 100 µM | > 100 µM | > 100 µM | > 100 µM | > 100 µM | > 100 µM | > 100 µM | > 100 µM | 1.51 µM | > 100 µM |
| CCOC(=O)c1cc(C#N)c(=O)n(/N=C(\C)c2ccncc2)c1O | > 100 µM | > 100 µM | > 100 µM | > 100 µM | > 100 µM | > 100 µM | > 100 µM | > 100 µM | > 100 µM | > 100 µM | > 100 µM | > 100 µM | > 100 µM | > 100 µM | > 100 µM | > 100 µM | > 100 µM | > 100 µM | > 100 µM | > 100 µM |
| CCN1CCN(C(=O)[C@]23CC[C@@H](C)[C@H](C)[C@@H]2C2=CC[C@@H]4[C@@]5(C)C/C(=C/c6ccncc6)C(=O)C(C)(C)[C@@H]5CC[C@@]4(C)[C@]2(C)CC3)CC1 | 1.62 µM | 3.24 µM | 1.56 µM | 3.49 µM | 1.78 µM | 4.57 µM | 1.5 µM | 3.03 µM | 1.7 µM | 3.25 µM | 1.7 µM | 3.69 µM | – | – | 1.37 µM | 2.65 µM | 1.32 µM | 2.8 µM | 2.42 µM | 6.28 µM |
| CCOC(=O)C(Cc1c[nH]c2ccc(N)cc12)(NC(C)=O)C(=O)OCC | > 1000 µM | > 1000 µM | 728 µM | > 1000 µM | – | – | > 1000 µM | > 1000 µM | > 1000 µM | > 1000 µM | > 1000 µM | > 1000 µM | > 1000 µM | > 1000 µM | > 1000 µM | > 1000 µM | – | – | 656 µM | > 1000 µM |
| O=S(=O)(NC1=NCCN1C(=S)SN1CCn2c1nsc2=S)c1ccc(Br)cc1 | 27.6 µM | > 100 µM | 43.5 µM | > 100 µM | 27.1 µM | > 100 µM | 63.9 µM | > 100 µM | 38.9 µM | > 100 µM | > 100 µM | > 100 µM | 24.7 µM | 73.2 µM | 61 µM | > 100 µM | 12.6 µM | > 100 µM | 20.9 µM | 71.8 µM |
| CC1=C2[C@@H](CC1)[C@]1(C)O[C@@](C3CCCCC3)(C[C@H]1OC(=O)CO)[C@H]2OC(=O)/C=C/c1ccccc1 | 8.65 µM | 23.6 µM | 4.69 µM | 17.5 µM | 5.82 µM | 17.4 µM | 6.3 µM | 18.4 µM | 6.35 µM | 17.8 µM | 0.186 µM | 11.6 µM | 7.12 µM | 21.1 µM | 0.359 µM | 14.9 µM | 5.92 µM | 22 µM | 7.45 µM | 24.1 µM |
| O=C(O[C@H]1CN[C@H](C#Cc2cc3ncnc(Nc4ccc5c(ccn5Cc5cc(F)ccc5F)c4)c3s2)C1)N1CCOCC1 | 5.13 µM | 18.2 µM | 0.206 µM | 7.1 µM | 6.1 µM | > 25 µM | 3.56 µM | 7.35 µM | 5.17 µM | 14 µM | 3.7 µM | > 23.2 µM | 3.19 µM | 7.44 µM | 0.339 µM | 7.05 µM | 0.187 µM | > 21.7 µM | 5.59 µM | 24.9 µM |
| COc1ccc(/C=N\NC(=O)CN2CCN(c3cc4c(cc3F)c(=O)c(C(=O)N/N=C/c3ccc(OC)c(OC)c3)cn4C3CC3)CC2)cc1OC | 2.02 µM | 3.97 µM | 2.55 µM | 8.78 µM | 3.56 µM | > 100 µM | 3.52 µM | 12.7 µM | 2.6 µM | 6.87 µM | > 100 µM | > 100 µM | 3.15 µM | 11.4 µM | > 100 µM | > 100 µM | 9.49 µM | 91.9 µM | 3.31 µM | > 100 µM |
| CC(=O)N[C@H]1C=C[C@@H]2/C=C(C)/C=C/[C@@H](C)[C@H]([C@H](C)[C@H](O)[C@@H](C)NC(C)=O)OC(=O)/C=C/C=C(C)\C=C\[C@]2(C)C1 | 0.00823 µM | 4.65 µM | 0.0131 µM and 0.0045 µM | 4.65 µM and 5.18 µM | 11 µM | > 45 µM | 5.04 µM | > 45 µM | 0.0045 µM | > 45 µM | 0.213 µM and 0.0397 µM | 4.65 µM and > 45 µM | 0.00564 µM and 0.0045 µM | 4.65 µM and > 45 µM | 0.00414 µM and 0.0045 µM | 4.65 µM and 10.6 µM | – | – | 6.32 µM | > 45 µM |
| CCN(CC)CCC(=O)NC1c2ccc(Cl)cc2Oc2c(C)cccc21 (configuration not stated) | – | 28.3 µM | – | 31.5 µM | – | 38.7 µM | – | 39 µM | – | 31.7 µM | – | 39 µM | – | 30.2 µM | – | 21.5 µM | – | – | – | 37 µM |
| CC(=O)Nc1ccc(C(=O)NN2C(=O)C(Cl)C2c2ccc(Cl)cc2)cc1 (configuration not stated) | – | > 100 µM | – | > 100 µM | – | > 100 µM | – | > 100 µM | – | > 100 µM | – | > 100 µM | – | > 100 µM | – | > 100 µM | – | – | – | > 100 µM |
